# Columns and labels:
# p38 [1] = experiment: p38 phosphorylation immunoblot in Cos-7 cells; format: cell-based; details: AG1478 250 nM 20 min, 0.3 M sorbitol or 200 μM hydrogen peroxide, FIG. 2A
# Description: FIG. 2. p38 mediates stress-induced EGFR phosphorylation. (A) Time-coure of p38 phosphorylation dependent on EGFR kinase function. Cos-7 cells were pretreated with AG1478 (250 nM) or an equal volume of empty vehicle (DMSO) for 20 min and stimulated with 0.3 M sorbitol or 200 μM hydrogen peroxide for the indicated periods. Cell extracts were immunoblotted with anti-phospho-p38 antibody and reprobing of the same filters with polyclonal anti-p38 antibody. (B) Stress-induced EGFR activation depends on p38 but not ERK activity in Cos-7 cells. Cos-7 cells were pre-treated with PD98059 (50 μM), SB202190 (10 μM) or an equal volume of empty vehicle (DMSO) for 30 min and stimulated with 0.3 M sorbitol and 200 μM hydrogen peroxide for 10 min and the GPCR agonist LPA (10 μM) or EGF (2 ng/mL) for 3 min as positive controls. Cell extracts were assayed for EGFR tyrosine phosphorylation content. (C) Stress-induced EGFR activation depends on p38 activity in TCC-Sup carcinoma cells. […]
# FIG. 6. […] Quantitative analysis of ERK phosphorylation from three independent experiments (mean[…]s.d.) using the FUJI LAS1000 imaging system. […] Quantitative analysis of GST-c-JUN phosphorylation from three independent experiments (mean[…]s.d.) using the FUJI LAS1000 imaging system. […]
# ERK1/2 [2] = experiment: ERK1/2 phosphorylation immunoblot in Cos-7 cells (pcDNA3-HA-ERK2); format: cell-based; details: AG1478 250 nM, BB94 10 μM, Crm197 10 μg/mL 20 min, stimulated 30 min, FIG. 6A
# Description: (§1) FIG. 6. MAPK activation in response to stress agents and blockade of EGFR, metalloprotease and HB-EGF function. (A) Cos-7 cells transiently transfected with pcDNA3-HA-ERK2, TCC-Sup and NCI-H292 cells were pre-treated with AG1478 (250 nM), BB94 (10 μM), Crm197 (10 μg/mL) or an equal volume of empty vehicle (DMSO) for 20 min and stimulated with 0.3 M sorbitol or 200 μM hydrogen peroxide for 30 min. After cell lysis total lysates were immunoblotted with anti-phospho-ERK antibody, followed by reprobing of the same membranes with polyclonal anti-ERK antibody. Quantitative analysis of ERK phosphorylation from three independent experiments (mean[…]s.d.) using the FUJI LAS1000 imaging system. (B) Cos-7 and NCI-H292 cell were treated as described under (A). After lysis, JNK was immunoprecipitated using an anti-JNK antibody, and JNK activity was assayed using GST-c-JUN fusion protein as a substrate. Phosphorylated GST-c-JUN was visualized by autoradiography and JNK was immunoblotted in parallel using polyclonal JNK antibody. Quantitative analysis of GST-c-JUN phosphorylation from three independent experiments (mean[…]s.d.) using the FUJI LAS1000 imaging system. TCC-Sup cells were treated as described under (A). […]
# (§2) Cells were lysed and proteins immunoprecipitated as described before (Daub et al., 1997). […] Phosphotyrosine was detected with the 4G10 monoclonal antibody (UBI, Lake Placid, N.Y.). […]
# ERK1/2 [3] = experiment: ERK1/2 phosphorylation immunoblot in TCC-Sup cells; format: cell-based, human; details: AG1478 250 nM, BB94 10 μM, Crm197 10 μg/mL, FIG. 6A
# Description: as §1, §2
# ERK1/2 [4] = experiment: ERK1/2 phosphorylation immunoblot in NCI-H292 cells; format: cell-based, human; details: AG1478 250 nM, BB94 10 μM, Crm197 10 μg/mL, FIG. 6A
# Description: as §1, §2
# EGFR [5] = experiment: EGFR tyrosine phosphorylation (IP/immunoblot) in NCI-H292 lung carcinoma cells; format: cell-based, human; details: for stress-induced EGFR activation upon siRNA transfection: 0.3 M sorbitol or 200 μM hydrogen peroxide 10 min
# EGFR [6] = experiment: EGFR tyrosine phosphorylation (IP/immunoblot) in Cos-7 cells; format: cell-based; details: for stress-induced EGFR activation: pre-treated 30 min with SB202190 10 μM or PD98059 50 μM, 0.3 M sorbitol or 200 μM hydrogen peroxide 10 min; for EGFR activation by oxidative stress: Src inhibitors, unpublished data; for EGFR activation after sorbitol or hydrogen peroxide upon siRNA transfection: both stress stimuli, 10 min, FIG. 5B
# p38 [7] = experiment: p38 activation immunoblot in TCC-Sup cells after doxorubicin; format: cell-based, human; details: doxorubicin treatment, FIG. 7A
# Description: FIG. 7. Doxorubicin-induced cell death of TCC-Sup carcinoma cells. (A) p38 activation in response to doxorubicin treatment. TCC-Sup cells were seeded and treated with doxorubicin for the indicated time points. After cell lysis, p38 activation was assessed by immunoblotting cell extracts with anti-phospho-p38 antibody and reprobing of the same filters with anti-p38 antibody. (B) Blockade of HB-EGF function enhances cell-death in response to doxorubicin. Cells were treated for 72 h with 10 μM doxorubicin and 10 μg/mL Crm197 every 24 h as indicated. After collection of cells in assay buffer, nuclei were stained with PI and analyzed by flow cytometric analysis.
# Cells were lysed and proteins immunoprecipitated as described before (Daub et al., 1997). Prior to lysis, cells grown to 80% confluence were treated with inhibitors and agonists as indicated in the figure legends and then lysed for 10 min on ice in buffer containing 50 mM HEPES, pH 7.5, 150 mM NaCl, 1% Triton X-100, 1 mM EDTA, 10% glycerol, 10 mM sodium pyrophosphate, 2 mM sodium orthovanadate, 10 mM sodium fluoride, 1 mM phenylmethylsulfonyl fluoride, and 10 μg/mL aprotinin. Lysates were precleared by centrifugation at 13,000 rpm for 10 min at 4° C. […] Phosphotyrosine was detected with the 4G10 monoclonal antibody (UBI, Lake Placid, N.Y.). […]
# [8] = target: epidermal growth factor receptor (EGFR) (UniProt P00533); experiment: cell-based or functional assay
# ADAM9 = experiment: RNA interference, gene expression by RT-PCR in NCI-H292 cells; format: cell-based, human; details: 2 days after transfection, FIG. 5A
# Description: (§3) FIG. 5. Effect of siRNAs against different ADAM proteins on stress-induced EGFR phosphorylation. (A) Blockade of ADAM metalloprotease expression by RNA interference (RNAi). NCI-H292 cells were transfected with siRNA against ADAM9, ADAM10 or ADAM15, cultured for 2 days and analyzed for gene expression by RT-PCR as indicated. (B) Cos-7 cells were transfected with siRNAs against ADAM9, -10, -12, -15 and -17, serum-starved for 24 hours, stimulated with 0.3 M sorbitol or 200 μM hydrogen peroxide for 10 min and assayed for EGFR tyrosine phosphorylation content. (C)NCI-H292 cells were treated as described under (B).
# (§4) Transfection of 21-nucleotide siRNA duplexes (Dharmacon Research, Lafayette, Colo., USA) for targeting endogenous genes was carried out using Oligofectamine (Invitrogen) for NCI-H292 cells and 4.2 μg siRNA duplex per 6-well plate as previously described (Elbashir et al., 2001). Cos-7 cells were transfected using Lipofectamine 2000 (Invitrogen) according to the manufacturer's protocol. Briefly, 8.4 μg siRNA duplex per 6 cm dish were incubated with 10 μL Lipofectamine 2000 in 1 mL serum-free medium for 20 minutes. The transfection mixture was added to the cell culture medium containing serum and, after 6 h, cells were washed and incubated in medium containing serum overnight. NCI-H292 and Cos-7 cells were serum-starved and assayed 2 d after transfection. Highest efficiencies in silencing target genes were obtained by using mixtures of siRNA duplexes targeting different regions of the gene of interest. Sequences of siRNA used were
# (§5) Specific silencing of targeted genes was confirmed by RT-PCR analysis. RNA isolated using RNeasy Mini Kit (Qiagen, Hilden, Germany) was reverse transcribed using AMV Reverse Transcriptase (Roche, Mannheim, Germany). PuReTaq Ready-To-Go PCR Beads (Amersham Biosciences, Piscataway, N.J.) were used for PCR amplification. Primers (Sigma Ark, Steinheim, Germany) were
# (§6) PCR products were subjected to electrophoresis on a 2.5% agarose gel and DNA was visualized by ethidium bromide staining.
# ADAM10 = experiment: as above; format: cell-based, human; details: 2 days after transfection, FIG. 5A
# Description: as §3, §4, §5, §6
# ADAM15 = experiment: as above; format: cell-based, human; details: 2 days after transfection, FIG. 5A
# Description: as §3, §4, §5, §6
molecule,measurement,setting,value
COc1cc2ncnc(Nc3cccc(Cl)c3)c2cc1OC [AG1478],p38 phosphorylation in response to stress agents,p38 [1],did not affect
same,sorbitol and hydrogen peroxide-induced activation of ERK1/2,ERK1/2 [2],blocked
same,hyperosmolarity and oxidative stress-induced ERK1/2 activation,ERK1/2 [3],substantially blocked
same,hyperosmolarity and oxidative stress-induced ERK1/2 activation,ERK1/2 [4],substantially blocked
"CNC(=O)[C@H](Cc1ccccc1)NC(=O)[C@H](CC(C)C)[C@H](CSc1cccs1)C(=O)NO [BB94, Batimastat]",inhibition of stress-induced EGFR activation,"EGFR [5]; BB94 10 μM 20 min, sorbitol 0.3 M or hydrogen peroxide 200 μM 10 min, printed 'inhibited ... to 50%'",50%
COc1cccc(-c2cc(=O)c3ccccc3o2)c1N [PD98059],stress-induced EGFR activation,EGFR [6]; FIG. 2B,did not affect
Cc1ccc(-c2nn(C(C)(C)C)c3ncnc(N)c23)cc1 [PP1],EGFR activation by oxidative stress,EGFR [6],did not achieve specific inhibition
CC(C)(C)n1nc(-c2ccc(Cl)cc2)c2c(N)ncnc21 [PP2],EGFR activation by oxidative stress,EGFR [6],did not achieve specific inhibition
Oc1ccc(-c2nc(-c3ccncc3)c(-c3ccc(F)cc3)[nH]2)cc1 [SB202190],EGF-induced receptor phosphorylation,"EGFR [6]; SB202190 10 μM 30 min, EGF 2 ng/mL 3 min, FIG. 2B",unaffected
same,LPA-induced receptor phosphorylation,"EGFR [6]; SB202190 10 μM 30 min, LPA 10 μM 3 min, FIG. 2B",unaffected
same,stress-induced EGFR activation,EGFR [6]; FIG. 2B,completely abrogated
COc1cccc2c1C(=O)c1c(O)c3c(c(O)c1C2=O)C[C@@](O)(C(=O)CO)C[C@@H]3O[C@H]1C[C@H](N)[C@H](O)[C@H](C)O1 [doxorubicin],p38 activation,p38 [7],induces p38 activation
HB-EGF (from UniProt Q99075 20-208) (ligand),JNK activity in response to oxidative stress (Cos-7 cells; kinase assay with GST-c-JUN),[8],50%
"siRNA against ADAM9: mixture of 21-nucleotide siRNA duplexes, SEQ ID NO 1 and 2, targeting ADAM9 (chain 1 AAUCACUGUGGAGACAUUUGCTT; chain 2 AAACUUCCAGUGUGUAGAUGCTT; chemistry not fully specified)",knockdown of target gene expression (ADAM9),ADAM9,efficient and specific knockdown
same,stress-induced EGFR activation upon siRNA transfection,EGFR [5]; FIG. 5C,participate in the stress response
"siRNA against ADAM10: mixture of 21-nucleotide siRNA duplexes, SEQ ID NO 3 and 4, targeting ADAM10 (chain 1 AAUGAAGAGGGACACUUCCCUTT; chain 2 AAGUUGCCUCCUCCUAAACCATT; chemistry not fully specified)",knockdown of target gene expression (ADAM10),ADAM10,efficient and specific knockdown
same,EGFR activation after sorbitol or hydrogen peroxide upon siRNA transfection,EGFR [6],involved in EGFR activation
"siRNA against ADAM12: mixture of siRNA duplexes, SEQ ID NO 5 and 6, targeting ADAM12 (chain 1 AACCUCGCUGCAAAGAAUGUGTT; chain 2 AAGACCUUGATACGACUGCUGTT; chemistry not fully specified)","EGFR activation upon siRNA transfection, hydrogen peroxide treatment only","EGFR [5]; 200 μM hydrogen peroxide, FIG. 5C",participate in the stress response
"siRNA against ADAM15: mixture of siRNA duplexes, SEQ ID NO 7 and 8, targeting ADAM15 (chain 1 AACUCCAUCUGUUCUCCUGACTT; chain 2 AAAUUGCCAGCUGCGCCCGUCTT; chemistry not fully specified)",knockdown of target gene expression (ADAM15),ADAM15,efficient and specific knockdown
"siRNA against ADAM17: mixture of siRNA duplexes, SEQ ID NO 9 to 11, targeting ADAM17 (nucleic acid, chemistry not fully specified) chain 1: AAAGUUUGCUUGGCACACCUUTT chain 2: AAGUAAGGCCCAGGAGUGUUTT chain 3: AACAUAGAGCCACUUUGGAGATT",EGFR activation after sorbitol or hydrogen peroxide upon siRNA transfection,EGFR [6],involved in EGFR activation
same,stress-induced EGFR activation upon siRNA transfection,EGFR [5]; FIG. 5C,involved in stress-induced EGFR activation

# Source: patent publication US20060148694A1, “Inhibition of stress-induced ligand-dependent egfr activation” (Max-Planck-Gesellschaft zur Foerderung der Wessenschaften. …, priority 2003, published 2006)
